In article PMC8308925 (Pharmaceuticals, 2021):
Converted amounts (≈) assume the structure as drawn. Read-outs that look alike come from different tables or passages of the source.

Columns and labels:
[1] = cited from earlier work
[2] = target: T1, ASBT (Homo sapiens, UniProt Q12908); conditions: inhibition of ASBT, implemented in DDI model; ref [61]; cited from earlier work
T1 sequence (Q12908 1-348): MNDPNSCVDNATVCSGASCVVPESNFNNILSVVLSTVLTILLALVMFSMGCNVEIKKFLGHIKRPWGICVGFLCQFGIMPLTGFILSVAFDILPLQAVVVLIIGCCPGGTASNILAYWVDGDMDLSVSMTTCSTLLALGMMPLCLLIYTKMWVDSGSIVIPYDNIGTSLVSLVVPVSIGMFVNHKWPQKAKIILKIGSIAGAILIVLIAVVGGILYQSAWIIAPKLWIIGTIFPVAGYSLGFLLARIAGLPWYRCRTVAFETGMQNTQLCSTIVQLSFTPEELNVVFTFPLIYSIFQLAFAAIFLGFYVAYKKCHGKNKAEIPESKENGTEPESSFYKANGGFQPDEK

[3] = amlodipine PBPK model parameter, cited from earlier work
[4] = target: T2, OATP1B3 (Homo sapiens, UniProt Q9NPD5); assay: in vitro
T2 sequence (Q9NPD5 1-702): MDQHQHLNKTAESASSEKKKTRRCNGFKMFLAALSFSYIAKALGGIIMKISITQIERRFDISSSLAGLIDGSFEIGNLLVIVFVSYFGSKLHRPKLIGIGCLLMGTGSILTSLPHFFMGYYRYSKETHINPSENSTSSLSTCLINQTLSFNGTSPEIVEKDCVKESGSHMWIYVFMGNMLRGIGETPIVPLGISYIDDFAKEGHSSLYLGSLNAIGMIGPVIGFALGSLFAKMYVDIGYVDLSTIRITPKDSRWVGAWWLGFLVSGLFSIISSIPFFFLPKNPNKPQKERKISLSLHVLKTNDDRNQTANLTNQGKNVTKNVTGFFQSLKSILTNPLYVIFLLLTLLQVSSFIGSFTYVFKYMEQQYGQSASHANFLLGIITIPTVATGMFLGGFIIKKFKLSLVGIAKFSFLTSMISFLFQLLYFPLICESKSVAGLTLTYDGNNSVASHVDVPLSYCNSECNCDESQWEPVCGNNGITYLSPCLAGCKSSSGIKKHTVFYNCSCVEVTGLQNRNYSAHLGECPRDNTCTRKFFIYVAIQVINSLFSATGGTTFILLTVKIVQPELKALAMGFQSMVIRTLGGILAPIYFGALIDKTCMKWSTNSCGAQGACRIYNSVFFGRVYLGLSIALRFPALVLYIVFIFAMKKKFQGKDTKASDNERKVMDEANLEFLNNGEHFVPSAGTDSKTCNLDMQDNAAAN
Description: (§1) For the experiments, 0.8 × 10^5 cells per well were seeded in poly-D-lysine coated 24-well plates, except for HEK293-ASBT cells, where 1 × 10^5 cells per well were seeded in poly-D-lysine coated 24-well plates. After incubation for 48 h, the medium was removed and the cells were washed with DPBS and preincubated for 10 min in DPBS at 37 °C.
(§2) Cells were disintegrated in 150 µL of 70% acetonitrile containing internal standard (IS; 200 nM of chenodeoxycholic acid). The cells were sonicated for 3 s and centrifuged at 13,000 rpm for 10 min. An aliquot (5 µL) from the supernatant (100 µL) was injected into LC-MS/MS system.
(§3) The sample preparation method is as stated above.
(§4) Vmax represents the maximum velocity at saturating substrate concentration, [S] represents the substrate concentration, Km represents the substrate concentration at half Vmax, and CLdiffusion represents the passive diffusion clearance.

[5] = target: T2, OATP1B3
[6] = target: T1, ASBT; assay: Uptake of MT921 and probe substrate in HEK 293-ASBT cells (substrate specificity, kinetics); assay type: in vitro ADME; conditions: ASBT-mediated MT921 uptake, 5–100 µM
Description: as §1, §2, §3, §4

[7] = target: T3, OATP1B1 (Homo sapiens, UniProt Q9Y6L6); assay: in vitro
T3 sequence (Q9Y6L6 1-691): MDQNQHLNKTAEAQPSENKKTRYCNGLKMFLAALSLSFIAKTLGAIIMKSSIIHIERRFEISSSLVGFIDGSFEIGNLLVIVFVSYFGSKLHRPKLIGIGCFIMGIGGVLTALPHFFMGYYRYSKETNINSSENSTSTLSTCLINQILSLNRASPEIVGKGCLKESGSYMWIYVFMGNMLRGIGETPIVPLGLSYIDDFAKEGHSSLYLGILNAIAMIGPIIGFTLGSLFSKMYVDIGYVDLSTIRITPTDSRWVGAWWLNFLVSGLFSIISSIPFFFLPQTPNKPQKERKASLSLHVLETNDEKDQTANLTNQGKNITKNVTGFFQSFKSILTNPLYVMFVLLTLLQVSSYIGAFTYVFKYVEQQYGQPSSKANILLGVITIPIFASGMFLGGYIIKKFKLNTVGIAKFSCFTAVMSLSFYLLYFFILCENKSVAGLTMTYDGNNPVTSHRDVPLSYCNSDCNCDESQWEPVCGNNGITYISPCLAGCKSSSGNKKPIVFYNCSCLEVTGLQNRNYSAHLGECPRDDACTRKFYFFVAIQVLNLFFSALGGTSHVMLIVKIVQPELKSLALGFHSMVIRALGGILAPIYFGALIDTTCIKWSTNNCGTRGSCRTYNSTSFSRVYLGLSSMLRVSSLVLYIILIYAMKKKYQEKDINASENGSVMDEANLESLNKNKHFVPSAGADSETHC

[8] = target: T4, NTCP (Homo sapiens, UniProt Q14973); assay: Uptake of MT921 and probe substrate in HEK 293-NTCP cells (substrate specificity, kinetics)
T4 sequence (Q14973 1-349): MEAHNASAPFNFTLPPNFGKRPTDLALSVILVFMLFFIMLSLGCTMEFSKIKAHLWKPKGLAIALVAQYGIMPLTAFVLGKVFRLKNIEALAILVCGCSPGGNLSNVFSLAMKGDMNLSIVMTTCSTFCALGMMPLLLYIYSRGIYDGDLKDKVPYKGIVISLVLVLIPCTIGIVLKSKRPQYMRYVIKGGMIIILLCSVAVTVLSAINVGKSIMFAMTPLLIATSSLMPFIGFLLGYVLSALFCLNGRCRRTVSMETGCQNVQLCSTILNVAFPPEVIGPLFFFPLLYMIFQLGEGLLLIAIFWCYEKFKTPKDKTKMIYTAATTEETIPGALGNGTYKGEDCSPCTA
Description: as §1, §2, §3, §4

[9] = substrate: C[C@H](CCC(=O)O)[C@H]1CC[C@H]2[C@@H]3[C@H](O)C[C@@H]4C[C@H](O)CC[C@]4(C)[C@H]3C[C@H](O)[C@]12C; assay: cells, lysate or membranes named; conditions: other: OAT3-mediated MT921 uptake, 5–300 µM, modified Michaelis–Menten fit; 37.0 °C
[10] = Literature, ref [33] (supplement list)

## CCOC(=O)C1=C(COCCN)NC(C)=C(C(=O)OC)C1c1ccccc1Cl (stereo not drawn) [amlodipine]
[1]; 2.5 mg po (tab), sd, ref [28] (supplement list)
  Cmax Obs: 1.94 ng/mL
[1]; 5 mg po (tab), sd, first line of the study, ref [27] (supplement list)
  Cmax Obs: 3.56 ng/mL
[1]; 5 mg po (tab), sd, ref [17] (supplement list)
  Cmax Obs: 2.36 ng/mL
[1]; 5 mg po (tab), sd, ref [20] (supplement list)
  Cmax Obs: 3.18 ng/mL
[1]; 5 mg po (tab), sd, ref [23] (supplement list)
  Cmax Obs: 2.44 ng/mL
[1]; 5 mg po (tab), sd, ref [25] (supplement list)
  Cmax Obs: 2.54 ng/mL
[1]; 5 mg po (tab), sd, ref [30] (supplement list)
  Cmax Obs: 3.07 ng/mL
[1]; 5 mg po (tab), sd, second line of the study, ref [27] (supplement list)
  Cmax Obs: 3.64 ng/mL
[1]; 10 mg po (tab), md, ref [16] (supplement list)
  Cmax Obs: 18.77 ng/mL
[1]; 10 mg po (tab), md, ref [21] (supplement list)
  Cmax Obs: 18.73 ng/mL
[1]; 10 mg po (tab), sd, first line of the study, ref [22] (supplement list)
  Cmax Obs: 5.32 ng/mL
[1]; 10 mg po (tab), sd, ref [17] (supplement list)
  Cmax Obs: 5.13 ng/mL
[1]; 10 mg po (tab), sd, ref [18] (supplement list)
  Cmax Obs: 5.51 ng/mL
[1]; 10 mg po (tab), sd, ref [19] (supplement list)
  Cmax Obs: 5.40 ng/mL
[1]; 10 mg po (tab), sd, ref [20] (supplement list)
  Cmax Obs: 6.85 ng/mL
[1]; 10 mg po (tab), sd, ref [24] (supplement list)
  Cmax Obs: 8.13 ng/mL
[1]; 10 mg po (tab), sd, ref [26] (supplement list)
  Cmax Obs: 6.41 ng/mL
[1]; 10 mg po (tab), sd, ref [29] (supplement list)
  Cmax Obs: 4.92 ng/mL
[1]; 10 mg po (tab), sd, second line of the study, ref [22] (supplement list)
  Cmax Obs: 4.37 ng/mL
[2]
  Ki: 42.1 µM
[3]; [10]
  Fraction unbound: 0.07
  Log P: 3.43 Log units
[3]; extracted from published literature, no reference given
  Solubility: 75.3 µg/mL (≈ 184 µM)

## C[C@]12CC[C@@H]3c4ccc(O)cc4CC[C@H]3[C@@H]1CC[C@@H]2O[C@@H]1O[C@H](C(=O)O)[C@@H](O)[C@H](O)[C@H]1O
[4]; 0.06 µM probe substrate, HEK 293-OATP1B3
  Increase of probe substrate uptake rate in transporter-expressing cells compared to mock cells: 9.6 fold

## C[C@H](CCC(=O)O)[C@H]1CC[C@H]2[C@@H]3[C@H](O)C[C@@H]4C[C@H](O)CC[C@]4(C)[C@H]3C[C@H](O)[C@]12C [MT921, cholic acid]
[4]; OATP1B3-mediated MT921 uptake, 5–100 µM, modified Michaelis–Menten fit
  Km: 27.4 µM
[4]; human
  intrinsic clearance (Vmax/Km): 3.46 µL/mg protein/min
[4]; human, Km, OATP1B3-mediated MT921 uptake, 5–100 µM, modified Michaelis–Menten fit
  Km at 10 min: 27.4 µM
[5]
  IC50: 38.3 µM
  Ki: 38.2 µM
[6]
  Vmax: 302.31 pmol/mg protein/min
[7]
  IC50 at 5 min: 63.2 µM
[8]; NTCP-mediated MT921 uptake, 5–100 µM
  Vmax: 409.28 pmol/mg protein/min
[8]; passive diffusion clearance, HEK 293-NTCP
  CLdiffusion: 1.27 µL/mg protein/min

## C[C@H](CCC(=O)NCCS(=O)(=O)O)[C@H]1CC[C@H]2[C@@H]3[C@H](O)C[C@@H]4C[C@H](O)CC[C@]4(C)[C@H]3C[C@H](O)[C@]12C [[^3H]taurocholate]
[8]; 0.8 µM probe substrate, HEK 293-NTCP
  Increase of probe substrate uptake rate in transporter-expressing cells compared to mock cells: 102.1 fold

B1: OAT3 (Homo sapiens) (protein)
chain: MTFSEILDRVGSMGHFQFLHVAILGLPILNMANHNLLQIFTAATPVHHCRPPHNASTGPWVLPMGPNGKPERCLRFVHPPNASLPNDTQRAMEPCLDGWVYNSTKDSIVTEWDLVCNSNKLKEMAQSIFMAGILIGGLVLGDLSDRFGRRPILTCSYLLLAASGSGAAFSPTFPIYMVFRFLCGFGISGITLSTVILNVEWVPTRMRAIMSTALGYCYTFGQFILPGLAYAIPQWRWLQLTVSIPFFVFFLSSWWTPESIRWLVLSGKSSKALKILRRVAVFNGKKEEGERLSLEELKLNLQKEISLAKAKYTASDLFRIPMLRRMTFCLSLAWFATGFAYYSLAMGVEEFGVNLYILQIIFGGVDVPAKFITILSLSYLGRHTTQAAALLLAGGAILALTFVPLDLQTVRTVLAVFGKGCLSSSFSCLFLYTSELYPTVIRQTGMGVSNLWTRVGSMVSPLVKITGEVQPFIPNIIYGITALLGGSAALFLPETLNQPLPETIEDLENWSLRAKKPKQEPEVEKASQRIPLQPHGPGLGSS
[9]
  Km: 133.33 µM
  Vmax/Km: 1.28 µL/mg protein/min
